The subject of one experiment is OVCAR3 cells. The experiment in a line: Cell proliferation activity test in OVCAR3 cells (CyQUANT Direct). Type of experiment: cell-based. The following applies: 3 days incubation, CyQUANT fluorescence detection, read-out: OVCAR-3_IC50_nM. In outline:
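Log-phase cells in RPMI-1640 with 10% FBS were seeded overnight, then exposed to compound at final 0–10 μM (0.2% DMSO) for 3 days at 37 °C, 5% CO2. Proliferation was read by CyQUANT Direct fluorescence after 60 min at 37 °C.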

The next experiment deals with HT29 cells. Description: CyQuant cell proliferation activity test in HT29 cells. The class given is cell-based. To be noted: 2000 cells per well, 3 days incubation, IC50 by XLFIT, read-out: HT29_IC50_nM. In outline:
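Cells seeded at 2000/well in RPMI-1640 with 10% FBS, overnight, then exposed 3 days at 37 °C to compound from 3000 nM top, 3-fold, 9 points, 0.2% DMSO. CyQuant read after 1 h; IC50 from curve fit.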

Experiment [1] has as its target T1, Human KIF18A (amino acid sequence 1-417) (Homo sapiens, UniProt Q8NI77).
T1 construct: purchased Viva Biotech (Shanghai) Ltd
T1 sequence (Q8NI77 1-417): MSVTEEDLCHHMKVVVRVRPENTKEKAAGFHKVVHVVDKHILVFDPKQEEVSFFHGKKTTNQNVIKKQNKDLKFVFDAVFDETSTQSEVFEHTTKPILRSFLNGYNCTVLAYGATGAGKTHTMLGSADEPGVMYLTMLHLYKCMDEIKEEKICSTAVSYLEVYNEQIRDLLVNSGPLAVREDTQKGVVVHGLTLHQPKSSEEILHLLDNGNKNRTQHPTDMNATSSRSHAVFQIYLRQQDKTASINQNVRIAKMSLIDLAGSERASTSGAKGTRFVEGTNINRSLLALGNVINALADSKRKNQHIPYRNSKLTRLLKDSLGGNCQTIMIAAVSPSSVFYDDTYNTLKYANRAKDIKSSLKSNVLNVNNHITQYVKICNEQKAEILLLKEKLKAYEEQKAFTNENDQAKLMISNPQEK
The experiment in a line: Enzymatic activity test (ADP-Glo, microtubule-stimulated KIF18A ATPase). Type of experiment: biochemical. To be noted: 60 μg/mL microtubules, 25 μM ATP, 2.5 nM KIF18A protein, 120 min at ambient temperature, read-out: KIF18A_nM. In outline:
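Microtubule-stimulated ATPase of KIF18A(1-417) run with 60 μg/mL microtubules, 25 μM ATP and 2.5 nM enzyme, compounds at 0-10 μM final, 120 min at ambient temperature. ADP formed was read by ADP-Glo chemiluminescence after two 30-min reagent incubations.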
For orientation: ADP-Glo turns the ADP formed in a reaction into a luminescent signal.

pIC50: −log10 of the molar value. Where two headings read alike, the source gives them in different places.

`O=C(Nc1cc(N2CCC(F)(F)CC2)c2nc(C(F)(F)F)ccc2c1)c1ccc(NS(=O)(=O)CCO)cc1N1CCC2(CC1)CC2` [Example 69, (2-(6-Azaspiro[2.5]octan-6-yl)-4-{[(2-hydroxyethyl)sulfonyl]amino}phenyl)-N-[8-(4,4-difluoropiperidinyl)-2-(trifluoromethyl)(6-quinolinyl)]formamide]: the pIC50 is 5.98 in the experiment with OVCAR3 cells (Homo sapiens, OVCAR-3, 72 h); 5.96 in the experiment on HT29 cells (Homo sapiens, HT-29, 72 h); 5.99 in experiment [1].
Take `[2H]c1c(NC(=O)c2ccc(NS(=O)(=O)CCO)cc2N2CCC3(CC2)CC3)cc2cccnc2c1N1CCC(F)(F)CC1` [Example 70, N-(8-(4,4-difluoropiperidin-1-yl)quinolin-6-yl-7-d)-4-((2-hydroxyethyl)sulphonamino)-2-(6-azaspiro[2.5]octan-6-yl)benzamide]: the pIC50 with OVCAR3 cells (Homo sapiens, OVCAR-3, 72 h) was 8.05; in the experiment with HT29 cells (Homo sapiens, HT-29, 72 h), 7.80; in experiment [1], 7.37.
On to `O=C(Nc1cc2cccnc2c(N2CCC(F)(F)CC2)c1F)c1ccc(NS(=O)(=O)CCO)cc1N1CCC2(CC1)CC2` [Example 71, N-(8-(4,4-difluoropiperidin-1-yl)-7-fluoroquinolin-6-yl)-4-((2-hydroxyethyl)sulfonamido)-2-(6-azaspiro[2.5]octan-6-yl]benzamide], for which the pIC50 was 7.74 in the experiment on OVCAR3 cells (Homo sapiens, OVCAR-3, 72 h); 7.77 in the experiment with HT29 cells (Homo sapiens, HT-29, 72 h); 6.89 in experiment [1].
With `O=C(Nc1cc2cccnc2c(N2CCC(F)(F)CC2)c1C(F)(F)F)c1ccc(NS(=O)(=O)CCO)cc1N1CCC2(CC1)CC2` [Example 72, N-(8-(4,4-difluoropiperidin-1-yl)-7-(trifluoromethyl)quinolin-6-yl)-4-((2-hydroxyethyl)sulfonamido)-2-(6-azaspiro[2.5]octan-6-yl)], the pIC50 is below 5.52 with OVCAR3 cells (Homo sapiens, OVCAR-3, 72 h); below 5.52 with HT29 cells (Homo sapiens, HT-29, 72 h); below 5.52 in experiment [1].
`O=C(Nc1cc2cccnc2c(N2CCC(F)(F)CC2)c1Cl)c1ccc(NS(=O)(=O)CCO)cc1N1CCC2(CC1)CC2` [Example 73, N-(7-chloro-8-(4,4-difluoropiperidin-1-yl)quinolin-6-yl)-4-((2-hydroxyethyl)sulfonamido)-2-(6-azaspiro[2.5]oct-6-yl)benzamide]: the pIC50 in the experiment on OVCAR3 cells (Homo sapiens, OVCAR-3, 72 h) is 5.99; in the experiment with HT29 cells (Homo sapiens, HT-29, 72 h) it was 5.85; in experiment [1], below 5.52.
The like results for `N#Cc1c(NC(=O)c2ccc(NS(=O)(=O)CCO)cc2N2CCC3(CC2)CC3)cc2cccnc2c1N1CCC(F)(F)CC1` [Example 74, N-(7-cyano-8-(4,4-difluoropiperidin-1-yl)quinolin-6-yl)-4-((2-hydroxyethyl)sulfon amido)-2-(6-azaspiro[2.5]oct-6-yl)benzamide] were, in that order, 5.82, 5.75 and below 5.52.
In the case of `Cc1ccc2cc(NC(=O)c3ccc(NS(=O)(=O)CCO)cc3N3CCC4(CC3)CC4)c(F)c(N3CCC(F)(F)CC3)c2n1` [Example 75, N-(8-(4,4-difluoropiperidin-1-yl)-7-fluoro-2-methylquinolin-6-yl)-4-((2-hydroxyethyl)sulfonamido)-2-(6-azaspiro[2.5]octan-6-yl)benzamide], the pIC50 is 7.08 in the experiment on OVCAR3 cells (Homo sapiens, OVCAR-3, 72 h); 7.36 in the experiment on HT29 cells (Homo sapiens, HT-29, 72 h); 6.41 in experiment [1].
Consider `O=C(Nc1cc2ccc(O)nc2c(N2CCC(F)(F)CC2)c1F)c1ccc(NS(=O)(=O)CCO)cc1N1CCC2(CC1)CC2` [Example 76, N-(8-(4,4-difluoropiperidin-1-yl)-7-fluoro-2-hydroxyquinolin-6-yl)-4-((2-hydroxyethyl)sulfonamido)-2-(6-azaspiro[2.5]oct-6-yl)benzamide], for which the pIC50 with OVCAR3 cells (Homo sapiens, OVCAR-3, 72 h) was 7.47; with HT29 cells (Homo sapiens, HT-29, 72 h), 7.51; in experiment [1], 7.34.
`Nc1ccc2cc(NC(=O)c3ccc(NS(=O)(=O)CCO)cc3N3CCC4(CC3)CC4)c(F)c(N3CCC(F)(F)CC3)c2n1` [Example 78, N-(2-amino-8-(4,4-difluoropiperidin-1-yl)-7-fluoroquinolin-6-yl)-4-((2-hydroxyethyl)sulfonamido)-2-(6-azaspiro[2.5]octan-6-yl)benzamide]: the pIC50 in the experiment with OVCAR3 cells (Homo sapiens, OVCAR-3, 72 h) is 7.92; in the experiment with HT29 cells (Homo sapiens, HT-29, 72 h), 7.96; in experiment [1], 6.71.
Regarding `CNc1ccc2cc(NC(=O)c3ccc(NS(=O)(=O)CCO)cc3N3CCC4(CC3)CC4)c(F)c(N3CCC(F)(F)CC3)c2n1` [Example 79, N-(8-(4,4-difluoropiperidin-1-yl)-7-fluoro-2-(methylamino)quinolin-6-yl)-4-((2-hydroxyethyl)sulfonamido)-2-(6-azaspiro[2.5]oct-6-yl)benzamide], the pIC50 in the experiment with OVCAR3 cells (Homo sapiens, OVCAR-3, 72 h) was 7.33; with HT29 cells (Homo sapiens, HT-29, 72 h) it was 7.26; in experiment [1], 6.03.
In the case of `O=C(Nc1cc2cccnc2c(N2CCC(F)(F)CC2)c1F)c1cnc(NS(=O)(=O)CCO)cc1N1CCC2(CC1)CC2` [Example 80, N-(8-(4,4-difluoropiperidin-1-yl)-7-fluoroquinolin-6-yl)-6-((2-hydroxyethyl)sulfonamido)-4-(6-azaspiro[2.5]oct-6-yl)nicotinamide], the pIC50 was 7.74 in the experiment with OVCAR3 cells (Homo sapiens, OVCAR-3, 72 h); 7.70 in the experiment with HT29 cells (Homo sapiens, HT-29, 72 h); 8.05 in experiment [1].
In the case of `O=C(Nc1cc(N2CCC(F)(F)CC2)c2cnccc2c1)c1ccc(NS(=O)(=O)CCO)cc1N1CCC2(CC1)CC2` [Example 81, N-(8-(4,4-difluoropiperidin-1-yl)isoquinolin-6-yl)-4-(2-hydroxyethylsulfonamido)-2-(6-azaspiro[2.5]octan-6-yl)benzamide], the pIC50 is 7.74 in the experiment with OVCAR3 cells (Homo sapiens, OVCAR-3, 72 h); 8.10 in the experiment on HT29 cells (Homo sapiens, HT-29, 72 h); 7.46 in experiment [1].
The like results for `O=C(Nc1cc(N2CCC(F)(F)CC2)c2nnccc2c1)c1ccc(NS(=O)(=O)CCO)cc1N1CCC2(CC1)CC2` [Example 82, 2-{6-azaspiro[2.5]octan-6-yl}-N-[8-(4,4-difluoropiperidin-1-yl)misonin-6-yl]-4-(2-hydroxyethanesulfonamido)benzamide] were, in that order, 7.89, 7.85 and 7.48.
The like results for `Nc1ncc2cc(NC(=O)c3ccc(NS(=O)(=O)CCO)cc3N3CCC4(CC3)CC4)cc(N3CCC(F)(F)CC3)c2n1` [Example 84, N-(2-amino-8-(4,4-difluoropiperidin-1-yl)quinazolin-6-yl)-4-((2-hydroxyethyl)sulfonamido)-2-(6-azaspiro[2.5]oct-6-yl)benzamide] were, in that order, 7.96, 7.60 and 7.40.
For `CCOC(=O)c1cnc2c(N3CCC(F)(F)CC3)cc(NC(=O)c3ccc(NS(=O)(=O)CCO)cc3N3CCC4(CC3)CC4)cc2c1` [Example 86, Ethyl 6-(2-{6-azaspiro[2.5]octan-6-yl}-4-(2-hydroxyethanesulfonamido)benzoylamino)-8-(4,4-difluoropiperidin-1-yl)quinoline-3-carboxylate], the pIC50 in the experiment with OVCAR3 cells (Homo sapiens, OVCAR-3, 72 h) is 7.47; in the experiment with HT29 cells (Homo sapiens, HT-29, 72 h) it was 7.25; in experiment [1] it was 6.65.
Take `O=C(O)c1cnc2c(N3CCC(F)(F)CC3)cc(NC(=O)c3ccc(NS(=O)(=O)CCO)cc3N3CCC4(CC3)CC4)cc2c1` [Example 87, 6-(2-{6-azaspiro[2.5]octan-6-yl}-4-(2-hydroxyethanesulfonamido)benzoylamino)-8-(4,4-difluoropiperidin-1-yl)quinoline-3-carboxylic acid]: the pIC50 is below 5.52 with OVCAR3 cells (Homo sapiens, OVCAR-3, 72 h); below 5.52 in the experiment with HT29 cells (Homo sapiens, HT-29, 72 h); 8.00 in experiment [1].
In the case of `NC(=O)c1cnc2c(N3CCC(F)(F)CC3)cc(NC(=O)c3ccc(NS(=O)(=O)CCO)cc3N3CCC4(CC3)CC4)cc2c1` [Example 88, 6-(2-{6-azaspiro[2.5]octan-6-yl}-4-(2-hydroxyethanesulfonamido)benzoylamino)-8-(4,4-difluoropiperidin-1-yl)quinoline-3-carboxamide], the pIC50 is 6.81 with OVCAR3 cells (Homo sapiens, OVCAR-3, 72 h); 6.37 in the experiment on HT29 cells (Homo sapiens, HT-29, 72 h); 7.39 in experiment [1].
With `Cc1cc2cc(NC(=O)c3ccc(NS(=O)(=O)CCO)cc3N3CCC4(CC3)CC4)cc(N3CCC(F)(F)CC3)c2nc1N` [Example 89, N-[2-Amino-8-(4,4-difluoropiperidinyl)-3-methyl (6-quinolinyl)](2-(6-azaspiro[2.5]octan-6-yl)-4-{[(2-hydroxyethyl)sulfonyl]amino}phenyl)formamide], the pIC50 was 7.49 in the experiment with OVCAR3 cells, 7.49 in the experiment on HT29 cells and 6.75 in experiment [1].

Values taken from patent publication US20260159500A1, “KINESIN KIF18A INHIBITOR AND USE THEREOF” (SHANGHAI APEIRON THERAPEUTICS COMPANY LIMITED, priority 2022, published 2026).
